The source of these data is patent US5424442A, “Water-soluble methine compounds useful in photographic silver halide emulsion containing the same” (Fuji Photo Film Co., Ltd., priority 1990, dated 1995).

Values joined by “and” are separate entries in the source; they are usually repeats but may differ in a detail not shown here. Identical values can stand only once. Like-named read-outs stand apart in the source and are kept apart here.

The nature of data set [1]: Solubility in solvents (dissolution in incubator, filtration through microfilter, visible absorption). The conditions noted are these: for Solubility in Water / Solubility in MeOH / Solubility in H2O: 720 min. It counts as physicochemical. The source says: The solubility of some of the compounds within formula (I) was accurately measured.
The measurement of solubility was made in the following manner.

Data set [2] is described as follows: Spectral sensitization of photographic silver halide emulsion. Further details: Yellow filter sensitivity (SY) / Red filter sensitivity (SR): scale not given here. The conditions noted are these: for Maximum Sensitization: spectrogram, tungsten light source of 2666° K.; for Yellow filter sensitivity (SY): yellow filter SC-50, 5 seconds exposure; for Yellow filter sensitivity (SY) / Red filter sensitivity (SR): standard point Fog+0.2; for Red filter sensitivity (SR): red filter SC-60, 5 seconds exposure. On the procedure:
A silver halide emulsion comprising pure silver bromide and having a cubic crystal form (the area ratio of the plane to the entire surface area of grain being 92%) was prepared and subjected to a sulfur sensitization treatment. The average diameter of silver halide grains contained in the emulsion was 0.68 μm, and 0.74 mol of silver halide per kg of emulsion was contained in the emulsion. One kg of the emulsion was weighed in each of pots. An aqueous solution of each of the compounds of formula (I) indicated in Tables 4 and 5 was added to the pot, and the mixture was mixed with stirring at 40° C. For the purpose of comparison, comparative compounds 1 and 2 wherein counter ion was iodide were dispersed in water and added to respective pots.
Further, 4-hydroxy-6-methyl-1,3,3a,7-tetraazaindene in an amount of 0.1 g/kg of emulsion, sodium salt of 2,4-dichloro-6-hydroxy-1,3,5-triazine in an amount of 0.1 g/kg of emulsion and sodium dodecylbenzenesulfonate in an amount of 0.1 g/kg of emulsion in order were added thereto. The emulsion was then coated on a polyethylene terephthalate film to obtain a photographic material.
Each of these samples was exposed through an optical wedge for 5 seconds by using a yellow filter (SC-50, a product of Fuji Photo Film Co., Ltd.) or a red filter (SC-60, a product of Fuji Photo Film Co., Ltd.) and tungsten light (5400° K.).
A spectrogram was obtained by using a grating spectrograph having a tungsten light source of 2666° K., and the maximum sensitization was measured.
After exposure, the samples were developed at 20° C for 4 minutes by using the following developing solution. The density of each of the developed films was measured by using a densitometer (manufactured by Fuji Photo Film Co., Ltd. Spectral sensitivity, that is, yellow filter sensitivity (SY) or red filter sensitivity (SR), sensitivity (SB) in the sensitive region inherent in silver halide, and fog were determined. Sensitivity was determined when the standard point of optical density was referred to as (Fog+0.2). Composition of Developing Solution […]
Two volumes of water were added thereto to obtain a working solution when used.

The mark [3] stands for this setting: water, Table 3, read-out: Solubility in Water.
[4] abbreviates: MeOH, 37° C., 12 hours, Table 2.
Where [5] appears, read: MeOH, 37° C., 12 hours, Table 1.
Setting [6] is: water, H2O, 37° C., 12 hours, Table 2, read-out: Solubility in H2O.

For the compound `CC[n+]1c(C=c2sc(=CC=C3C=CN(C)C=C3)c(=O)n2C)sc2ccccc21` [Compound 98], the solubility at 12 h in data set [1] (setting [3]) is 6.8 mg/mL.
For `CCn1c(=CC2=[N+](CC)CCS2)sc(=C2Sc3ccccc3N2C)c1=O` [Compound 142], in data set [2] (Table 4), the “Maximum Sensitization” value is 495 nm and the “Yellow filter sensitivity (SY)” value worked out at 300.
On to `CN1C(=CC=c2sc(=Cc3sc4ccccc4[n+]3C)n(C)c2=O)Sc2ccccc21` [Compound 9], for which, in data set [1] (water, Table 3), the “Solubility in Water” value was 3.8 mg/mL.
In the case of `CCN1C(=CC=c2sc(=Cc3sc4c5ccccc5ccc4[n+]3C)n(CC)c2=O)Sc2ccc3ccccc3c21` [Compound 36], in data set [1] (water, Table 3), the “Solubility in Water” value was found to be 4.8 mg/mL.
Take `CCCn1c(=Cc2sc3ccccc3[n+]2CC)sc(=CC=C2C=Cc3ccccc3N2CC)c1=O` [Compound 96]: in data set [2] (Table 5), the “Red filter sensitivity (SR)” value came out at 3600 and the “Maximum Sensitization” value worked out at 660 nm.
For the compound `CCn1c(=Cc2sc(-c3ccccc3)c(-c3ccccc3)[n+]2CC)sc(=CC=C2N(C)c3ccccc3C2(C)C)c1=O` [Compound 91], in data set [2] (Table 4), the “Maximum Sensitization” value is recorded as 600 nm and the “Yellow filter sensitivity (SY)” value is reported as 1730.
As to `CN1C(=CC=c2sc(=Cc3sc4ccccc4[n+]3C)n(C)c2=O)Sc2ccccc21` [Compound 10], in data set [1] (water, Table 3), the “Solubility in Water” value is more than 10 mg/mL.
As to `CCn1c(=CC2=CC(=Cc3sc4cc(C)c(C)cc4[n+]3CC)CC(C)(C)C2)sc(=C2Sc3ccccc3N2C)c1=O` [Compound 151], in data set [2] (Table 5), the “Red filter sensitivity (SR)” value was found to be 1535 and the “Maximum Sensitization” value was found to be 750 nm.
Turning to `CCn1c(=CC2=CC(=Cc3sc4ccccc4[n+]3CC)Oc3ccccc32)sc(=C2Sc3ccc(OC)cc3N2C)c1=O` [Compound 150], in data set [1] (setting [3]), the solubility at 12 h is 2.1 mg/mL. Further, in data set [2] (Table 5), the “Red filter sensitivity (SR)” value is listed as 905 and the “Maximum Sensitization” value was 695 nm.
As for `CCN1C(=CC=c2sc(=Cc3cc[n+](C)c4ccccc34)n(C)c2=O)N(CC)c2ccccc21` [Compound 104], the solubility at 12 h in data set [1] (setting [3]) is 4.1 mg/mL.
With `CCn1c(=Cc2sc3c4ccccc4ccc3[n+]2CC)sc(=CC=C2SCCN2C)c1=O` [Compound 45], the solubility at 12 h in data set [1] (setting [3]) was more than 10 mg/mL.
Turning to `CCn1c(=Cc2sc3cc(C)c(C)cc3[n+]2CC)sc(=C2Sc3ccccc3N2C)c1=O` [drawing 127, reference compound], the “Solubility in MeOH” value in data set [1] (setting [4]) was 0.1 mg/mL.
On to `CCN1C(C)=CSC1=CC=c1sc(=Cc2sc3ccccc3[n+]2CC)n(CC)c1=O` [Compound A, reference compound], for which the “Solubility in H2O” value is 0.17 mM in data set [1] (H2O, 37° C., 12 hours) and 0.10 mg/mL in data set [1] (H2O, 37° C., 12 hours, Table 1). In addition, the “Solubility in MeOH” value in data set [1] (MeOH, 37° C., 12 hours) was determined as 1.11 mM; in data set [1] (setting [5]), 0.65 mg/mL. Also, in data set [1] (dmso, organic solvent or mixture, DMSO, 37° C., 12 hours, read-out: Solubility in DMSO), the solubility at 12 h is 20000 µM and 11700 µg/mL.
Take `CCn1c(=C2CCC[n+]3c2sc2ccccc23)sc(=C2Sc3ccccc3N2C)c1=O` [Compound 156]: the solubility at 12 h in data set [1] (setting [3]) was 3.7 mg/mL.
`CCn1c(=Cc2oc3ccccc3[n+]2CC)sc(=C2Sc3ccccc3N2C)c1=O` [Compound 128]: the “Solubility in H2O” value in data set [1] (H2O, 37° C., 12 hours, Table 2) is more than 10 mg/mL. Further, the “Solubility in MeOH” value in data set [1] (setting [4]) was more than 10 mg/mL.
Take `CCn1c(=Cc2sc3ccccc3[n+]2C)sc(=C2Oc3ccc4ccccc4c3N2C)c1=O` [Compound 127]: the solubility at 12 h in data set [1] (setting [3]) is 5.7 mg/mL.
Turning to `CCN1C(=CC=c2sc(=Cc3sc(-c4ccccc4)c(-c4ccccc4)[n+]3CC)n(CC)c2=O)Sc2ccc3ccccc3c21` [Compound 89], in data set [2] (Table 4), the “Maximum Sensitization” value is recorded as 640 nm and the “Yellow filter sensitivity (SY)” value is 705.
`CCN1C(=CC=c2sc(=Cc3sc4c5ccccc5ccc4[n+]3C)n(CC)c2=O)Sc2ccc3ccccc3c21` [Compound 35]: the “Solubility in Water” value in data set [1] (water, Table 3) was more than 10 mg/mL.
For `CCn1c(=Cc2sc3cc(C)c(C)cc3[n+]2CC)sc(=C2Sc3ccccc3N2C)c1=O` [Compound 110], the “Solubility in MeOH” value in data set [1] (setting [4]) is more than 10 mg/mL. In data set [1] (setting [6]), the solubility at 12 h worked out at 1.7 mg/mL.
With `CCN1C(=CC=c2sc(=CC3=CC(=Cc4sc5cc(C)c(C)cc5[n+]4CC)Oc4ccccc43)n(CC)c2=O)Sc2ccccc21` [Compound 153], the solubility at 12 h in data set [1] (setting [3]) was 1.4 mg/mL.
`CN1C(=c2sc(=Cc3cc[n+](C)cc3)n(C)c2=O)Sc2ccccc21` [Compound 145]: the solubility at 12 h in data set [1] (setting [3]) worked out at 8.8 mg/mL.
In the case of `CCN1C(=CC=c2sc(=Cc3sc4c5ccccc5ccc4[n+]3C)n(CC)c2=O)Sc2ccc3ccccc3c21` [Compound 34], the “Solubility in Water” value in data set [1] (water, Table 3) was 7.1 mg/mL.
In the case of `CCN1C(=CC=c2sc(=Cc3sc(-c4ccccc4)c(-c4ccccc4)[n+]3CC)n(CC)c2=O)Oc2ccccc21` [Compound 88], in data set [2] (Table 4), the “Maximum Sensitization” value is 565 nm and the “Yellow filter sensitivity (SY)” value is reported as 2085.
`CCn1c(=Cc2sc3ccccc3[n+]2CC)sc(=C2C=Cc3ccccc3N2C)c1=O` [Compound 147]: in data set [1] (setting [3]), the solubility at 12 h is 8.1 mg/mL.
As for `C=CCN1C=CC(=CC=c2sc(=Cc3sc4c5ccccc5ccc4[n+]3CC)n(CC=C)c2=O)c2ccccc21` [Compound 100], in data set [2] (Table 5), the “Red filter sensitivity (SR)” value is on record as 1685 and the “Maximum Sensitization” value is given as 715 nm.
Consider `CCN1C(=CC=c2sc(=Cc3sc4c5ccccc5ccc4[n+]3CC)n(CC)c2=O)Sc2ccc3ccccc3c21` [Compound E, reference compound], for which the “Solubility in MeOH” value is 0.03 mM in data set [1] (MeOH, 37° C., 12 hours) and 0.03 mg/mL in data set [1] (setting [5]).
With `CCn1c(=Cc2oc3ccccc3[n+]2CC)sc(=C2Sc3ccccc3N2C)c1=O` [Compound D, reference compound], the “Solubility in H2O” value in data set [1] (H2O, 37° C., 12 hours, Table 2) worked out at 0.2 mg/mL. In data set [1] (setting [4]), the “Solubility in MeOH” value came to 2.0 mg/mL.
In the case of `CCN1C(=CC=c2sc(=Cc3sc4c5ccccc5ccc4[n+]3CC)n(CC)c2=O)Sc2ccc3ccccc3c21` [Compound 25], the “Solubility in MeOH” value is more than 25 mM in data set [1] (MeOH, 37° C., 12 hours) and more than 16 mg/mL in data set [1] (setting [5]). The solubility at 12 h in data set [1] (water, H2O, 37° C., 12 hours, Table 1, read-out: Solubility in H2O) turned out to be 6.56 mg/mL; in data set [1] (water, H2O, 37° C., 12 hours, read-out: Solubility in H2O), 10.1 mM.
With `CCn1c(=CC2=CC(=Cc3sc4ccccc4[n+]3CC)CC(C)(C)C2)sc(=C2Sc3ccccc3N2C)c1=O` [Compound 148], the solubility at 12 h in data set [1] (setting [3]) came to 3.2 mg/mL.
On to `CCN1C(=CC=c2sc(=Cc3cc[n+](CC)c4ccccc34)n(CC)c2=O)C=Cc2ccccc21` [reference compound], for which the solubility at 12 h was determined as 2.8 mg/mL in data set [1] (methanol, organic solvent or mixture, MeOH, 37° C., 12 hours, Table 2, read-out: Solubility in MeOH) and 0.3 mg/mL in data set [1] (setting [6]).
`CN1C(=CC=c2sc(=Cc3sc4ccccc4[n+]3C)n(C)c2=O)Sc2ccccc21` [Compound 7]: the “Solubility in Water” value in data set [1] (water, Table 3) is 6.2 mg/mL.
`CCN1C(=CC=c2sc(=Cc3sc4c5ccccc5ccc4[n+]3C)n(CC)c2=O)Sc2ccc3ccccc3c21` [Compound 33]: the “Solubility in Water” value in data set [1] (water, Table 3) is 5.3 mg/mL.
As to `CCn1c(=Cc2oc3c4ccccc4ccc3[n+]2CC)sc(=C2Sc3ccccc3N2C)c1=O` [drawing 128, reference compound], the “Solubility in MeOH” value in data set [1] (setting [4]) turned out to be 0.15 mg/mL.
As for `CCCn1c(=Cc2oc3cc(C)c(C)cc3[n+]2CC)sc(=CC=C2C=CN(CC)c3ccccc32)c1=O` [Compound 101], in data set [2] (Table 5), the “Red filter sensitivity (SR)” value was 2270 and the “Maximum Sensitization” value was 695 nm.
In the case of `CCn1c(=Cc2oc3ccc(-c4ccccc4)cc3[n+]2CC)sc(=C2Sc3ccccc3N2C)c1=O` [Compound 133], in data set [2] (Table 4), the “Maximum Sensitization” value amounted to 520 nm and the “Yellow filter sensitivity (SY)” value amounted to 1620.
For the compound `CCN1C(=CC=c2sc(=Cc3sc4ccccc4[n+]3CC)n(CC)c2=O)Sc2ccc(Cl)cc21` [Compound 3], the solubility at 12 h in data set [1] (setting [3]) was 7.2 mg/mL.
Turning to `CCN1C(=CC=c2sc(=Cc3oc4c5ccccc5ccc4[n+]3CC)n(CC)c2=O)Sc2c1ccc1ccccc21` [Compound 86], in data set [2] (Table 4), the “Maximum Sensitization” value is 630 nm and the “Yellow filter sensitivity (SY)” value was 890.
Consider `CCN1C(C)=CSC1=CC=c1sc(=Cc2sc3ccccc3[n+]2CC)n(CC)c1=O` [Compound 53], for which the “Solubility in H2O” value in data set [1] (H2O, 37° C., 12 hours) was more than 37 mM; in data set [1] (H2O, 37° C., 12 hours, Table 1) it was more than 19 mg/mL. In addition, the “Solubility in MeOH” value in data set [1] (MeOH, 37° C., 12 hours) is more than 33 mM; in data set [1] (setting [5]), more than 17 mg/mL.
Turning to `CCn1c(=Cc2sc3cc(C)c(C)cc3[n+]2CC)sc(=C2Sc3ccc(OC)cc3N2C)c1=O` [Compound 111], in data set [2] (Table 4), the “Maximum Sensitization” value is listed as 540 nm and the “Yellow filter sensitivity (SY)” value amounted to 2085.

The solubility is the concentration that dissolves in the medium under given conditions.
